“And” between values parts separate entries of the source, which are not always exact repeats. Identical values can stand only once. Like-named read-outs stand apart in the source and are kept apart here.

One series deals with HER2. As to the kind of experiment: HER2 degradation assay with BT-474 cell line. In kind it is cell-based, human. The settings on record: BT-474 cells, overnight incubation.
The nature of series [1]: Stability of SDC-TRAPs in mouse plasma. It is filed as in vitro ADME. The conditions noted are these: 37° C. How it is done: SDC-TRAPs were incubated in mouse plasma for 1 h at 37° C. and assayed for integrity at 0, 0.25, 0.5 and 1 h to assess the stability of the SDC-TRAP, e.g., as compared to the effector and targeting compounds. Compound stability was determined using […].

Series [2] can be described thus: Tissue distribution of ganetespib in female CD-1 nu/nu mice bearing RERF human NSCLC xenografts. The settings on record: IV 50 mg/kg; for concentration at 5 min / concentration at 24 h / concentration at 6 h: female, CD-1 nu/nu, mouse. In kind it is in vivo. The text has this: To confirm the distribution of ganetespib in blood, livers, kidneys, brains, hearts, lungs and tumors after IV administration of ganetespib to female CD-1 nu/nu mice bearing RERF human NSCLC xenografts, and to examine metabolic profiles of ganetespib in plasma, red blood cells, and above tissues.
Test Articles: ganetespib
Animals: female CD-1 nu/nu mice bearing RERF human NSCLC xenografts (N=3/group)
Formulation: 10% DMSO, 18% Cremophor RH40, 3.6% dextrose solution (DRD)
Bleeding time points: 5 min, 6, 24 hr
Collected tissues: blood (plasma and red blood cells (RBC)), liver, kidneys, brain, heart, lung, tumor
Protein precipitation: 50 μL of 10 times diluted plasma or RBC+150 μL ACN (10 mM NH4OAc), vortexed and centrifuged at 10000 rpm for 8 min; 150 μL supernatant+150 μL water (10 mM NH4OAc)
Protein precipitation: 100 μL homogenized tissue (1:3 tissue: PBS buffer)+100 μL ACN (10 mM NH4OAc), vortexed and centrifuged at 10000 rpm for 8 min
For orientation: In xenograft studies the graft and the host belong to different species.

Procedure for HER2: BT-474 cells (human breast cancer cell line ATCC HTB-20) were obtained from ATCC and seeded into 12-well tissue culture plates at 0.2×10^6/1.8 mL/well. The cells were incubated for more than 6 hours at 37° C. in DMEM+10% FBS, +1% P/S, +1.5 g/L sodium bicarbonate. […] The DMSO final concentration was 0.2%. Cells were incubated overnight at 37° C. in 5% CO2.
Media was decanted from the plate, cells were washed 1× in PBS. 400 μL trypsin (EDTA) per well was added, and the cells were incubated for 2 to 3 minutes. Cells were collected into FACS tubes containing 1 ml culture medium to neutralize the trypsin and were centrifuged for 5 minutes at 1200 rpm. Supernatant was decanted and the cells were resuspended in 5 μL FITC (anti HER2/nu)/200 μL staining buffer (1×PBS+1% FBS+0.05% Sodium Azide)/tube. Controls were 5 μL IgG isotype control and staining buffer only. Tubes were incubated for 30 minutes in the dark at room temperature. 1 mL staining buffer was added to each tube and the tubes were centrifuged for 6 minutes at 1200 rpm. The supernatant was decanted and 300 μL staining buffer was added to each tube, which was stored at 4° C. for FACS (cytometer) analysis. The cytometer readout was normalized and the potency of each compound was evaluated with IC50 calculated with XLfit™ software.

With `CC(C)C[C@H](NC(=O)[C@H](Cc1ccccc1)NC(=O)c1cnccn1)B1OC(C)(C)C(C)(c2ccc(C(=O)N3CCN(Cc4ccc(-n5c(O)nnc5-c5cc(C(C)C)c(O)cc5O)cc4)CC3)cc2)O1` (stereo partly drawn) [SDC-TRAP-0236, N-((2S)-1-(((1R)-1-(4-(4-(4-(4-(3-(2,4-dihydroxy-5-isopropylphenyl)-5-hydroxy-4H-1,2,4-triazol-4-yl)benzyl)piperazine-1-carbonyl)phenyl)-4,5,5-trimethyl-1,3,2-dioxaborolan-2-yl)-3-methylbutyl)amino)-1-oxo-3-phenylpropan-2-yl)pyrazine-2-carboxamide], the IC50 (commonly the concentration at which inhibition is half-maximal) in the series on HER2 is 0.71 µM. In addition, the “% Remaining (1 h)” value in series [1] worked out at 25.5%.

As for `CC(C)C[C@H](NC(=O)[C@H](Cc1ccccc1)NC(=O)c1cnccn1)B1OC(C)(C)C(C)(c2ccc(C(=O)N3CCC(CCn4ccc5cc(-n6c(O)nnc6-c6cc(C(C)C)c(O)cc6O)ccc54)CC3)cc2)O1` (stereo partly drawn) [SDC-TRAP-0237, N-((2S)-1-(((1R)-1-(4-(4-(4-(2-(5-(3-(2,4-dihydroxy-5-isopropylphenyl)-5-hydroxy-4H-1,2,4-triazol-4-yl)-1H-indol-1-yl)ethyl)piperidine-1-carbonyl)phenyl)-4,5,5-trimethyl-1,3,2-dioxaborolan-2-yl)-3-methylbutyl)amino)-1-oxo-3-phenylpropan-2-yl)pyrazine-2-carboxamide], the IC50 with HER2 is > 5 µM. Moreover, the “% Remaining (1 h)” value in series [1] turned out to be 84.2%.

As to `CC(C)C[C@H](NC(=O)[C@H](Cc1ccccc1)NC(=O)c1cnccn1)B1OC(C)(C)C(C)(c2ccc(C(=O)N3CCN(c4ccc(-n5c(O)nnc5-c5cc(C(C)C)c(O)cc5O)cc4)CC3)cc2)O1` (stereo partly drawn) [SDC-TRAP-0238, N-((2S)-1-(((1R)-1-(4-(4-(4-(4-(3-(2,4-dihydroxy-5-isopropylphenyl)-5-hydroxy-4H-1,2,4-triazol-4-yl)phenyl)piperazine-1-carbonyl)phenyl)-4,5,5-trimethyl-1,3,2-dioxaborolan-2-yl)-3-methylbutyl)amino)-1-oxo-3-phenylpropan-2-yl)pyrazine-2-carboxamide], the IC50 in the series on HER2 is > 5 µM. The “% Remaining (1 h)” value in series [1] was 24.0%.

For `CC(C)C[C@H](NC(=O)[C@H](Cc1ccccc1)NC(=O)c1cnccn1)B1OC(C)(C)C(C)(c2ccc(C(=O)N3CCc4ccc(-n5c(O)nnc5-c5cc(C(C)C)c(O)cc5O)cc4C3)cc2)O1` (stereo partly drawn) [SDC-TRAP-0239, N-((2S)-1-(((1R)-1-(4-(4-(7-(3-(2,4-dihydroxy-5-isopropylphenyl)-5-hydroxy-4H-1,2,4-triazol-4-yl)-1,2,3,4-tetrahydroisoquinoline-2-carbonyl)phenyl)-4,5,5-trimethyl-1,3,2-dioxaborolan-2-yl)-3-methylbutyl)amino)-1-oxo-3-phenylpropan-2-yl)pyrazine-2-carboxamide], in the series on HER2, the IC50 is > 5 µM. The “% Remaining (1 h)” value in series [1] amounted to 35.8%.

As for `CCNC(=O)c1nnc(-c2cc(C(C)C)c(O)cc2O)n1-c1ccc2c(ccn2CCC2CCN(C(=O)c3ccc(C4(C)OB([C@H](CC(C)C)NC(=O)[C@H](Cc5ccccc5)NC(=O)c5cnccn5)OC4(C)C)cc3)CC2)c1` (stereo partly drawn) [SDC-TRAP-0240, N-((2S)-1-(((1R)-1-(4-(4-(4-(2-(5-(3-(2,4-dihydroxy-5-isopropylphenyl)-5-(ethylcarbamoyl)-4H-1,2,4-triazol-4-yl)-1H-indol-1-yl)ethyl)piperidine-1-carbonyl)phenyl)-4,5,5-trimethyl-1,3,2-dioxaborolan-2-yl)-3-methylbutyl)amino)-1-oxo-3-phenylpropan-2-yl)pyrazine-2-carboxamide], the IC50 with HER2 is > 5 µM. The “% Remaining (1 h)” value in series [1] is on record as 84.0%.

In the series on HER2, `CC(C)C[C@H](NC(=O)[C@H](Cc1ccccc1)NC(=O)c1cnccn1)B1OC(C)(C)C(C)(c2ccc(C(=O)N3CCC(COc4ccc(-n5c(O)nnc5-c5cc(C(C)C)c(O)cc5O)cc4)CC3)cc2)O1` (stereo partly drawn) [SDC-TRAP-0242, N-((2S)-1-(((1R)-1-(4-(4-(4-((4-(3-(2,4-dihydroxy-5-isopropylphenyl)-5-hydroxy-4H-1,2,4-triazol-4-yl)phenoxy)methyl)piperidine-1-carbonyl)phenyl)-4,5,5-trimethyl-1,3,2-dioxaborolan-2-yl)-3-methylbutyl)amino)-1-oxo-3-phenylpropan-2-yl)pyrazine-2-carboxamide] yielded an IC50 of 0.407 µM.

For the compound `CC(C)C[C@H](NC(=O)[C@H](Cc1ccccc1)NC(=O)c1cnccn1)B1O[C@H]2C[C@H]3C[C@H](C3(C)C)[C@@]2(CC(=O)N2CCC(CCn3ccc4cc(-n5c(O)nnc5-c5cc(C(C)C)c(O)cc5O)ccc43)CC2)O1` [SDC-TRAP-0245, N—((S)-1-(((R)-1-((3aR,4R,6R,7aS)-3a-(2-(4-(2-(5-(3-(2,4-dihydroxy-5-isopropylphenyl)-5-hydroxy-4H-1,2,4-triazol-4-yl)-1H-indol-1-yl)ethyl)piperidin-1-yl)-2-oxoethyl)-5,5-dimethylhexahydro-4,6-methanobenzo[d][1,3,2]dioxaborol-2-yl)-3-methylbutyl)amino)-1-oxo-3-phenylpropan-2-yl)pyrazine-2-carboxamide], the “% Remaining (1 h)” value in series [1] is 44.2%.

For `CCNC(=O)c1nnc(-c2cc(C(C)C)c(O)cc2O)n1-c1ccc(CN2CCC(C(=O)N3CCC4(CC3)OB([C@H](CC(C)C)NC(=O)[C@H](Cc3ccccc3)NC(=O)c3cnccn3)OC4(C)C)CC2)cc1` [SDC-TRAP-0252, N—((S)-1-(((R)-1-(8-(1-(4-(3-(2,4-dihydroxy-5-isopropylphenyl)-5-(ethylcarbamoyl)-4H-1,2,4-triazol-4-yl)benzyl)piperidine-4-carbonyl)-4,4-dimethyl-1,3-dioxa-8-aza-2-boraspiro[4.5]decan-2-yl)-3-methylbutyl)amino)-1-oxo-3-phenylpropan-2-yl)pyrazine-2-carboxamide], the “% Remaining (1 h)” value in series [1] is listed as 34%.

In the case of `CC(C)c1cc(-c2n[nH]c(=O)n2-c2ccc3c(ccn3C)c2)c(O)cc1O` [ganetespib], the “Mean concentration in plasma relative to that in RBC” value in series [2] (5 min) is listed as “about 10 times”. For the same compound, the Concentration in tumor in series [2] (5 min, tumor) was determined as 2350 nM. Further, the Concentration in plasma entry in series [2] (24 hr, plasma) is “<LLOQ”. The concentration at 5 min was 6000 ng/mL and 16.5 µM in series [2] (red blood cells, 5 min, RBC, read-out: Concentration in RBC); 530 nM and 190 ng/g in series [2] (5 min, brain, read-out: Concentration in brain); 36.2 µM and 13200 ng/g in series [2] (5 min, heart, read-out: Concentration in heart); 57.8 µM and 21100 ng/g in series [2] (5 min, kidneys, read-out: Concentration in kidneys); 46.3 µM and 16900 ng/g in series [2] (5 min, liver, read-out: Concentration in liver); 9240 ng/g and 25.4 µM in series [2] (5 min, lung, read-out: Concentration in lung). The concentration at 5 min in series [2] (5 min, plasma, read-out: Concentration in plasma) was 160 µM and 58400 ng/mL; in series [2] (5 min, tumor, read-out: Concentration in tumor), 860 ng/g and 2.35 µM. Also, the concentration at 24 h in series [2] (red blood cells, 24 hr, RBC, read-out: Concentration in RBC) was 3 ng/mL and 7 nM; in series [2] (24 hr, brain, read-out: Concentration in brain) it was 40 ng/g and 120 nM; in series [2] (24 hr, heart, read-out: Concentration in heart), 0 ng/g and 0 nM; in series [2] (24 hr, kidneys, read-out: Concentration in kidneys) it was 10 ng/g and 20 nM; in series [2] (24 hr, liver, read-out: Concentration in liver) it was 5 ng/g and 10 nM; in series [2] (24 hr, lung, read-out: Concentration in lung), 0 ng/g and 5 nM. Moreover, the concentration at 24 h was < 2.5 nM in series [2] (24 hr, plasma, read-out: Plasma concentration (below the lower limit of quantitation)); 850 nM and 310 ng/g in series [2] (24 hr, tumor, read-out: Concentration in tumor). Also, the concentration at 6 h in series [2] (brain, read-out: Concentration in brain) is 70 ng/g and 180 nM; in series [2] (heart, read-out: Concentration in heart), 50 ng/g and 130 nM; in series [2] (kidneys, read-out: Concentration in kidneys) it was 60 ng/g and 150 nM; in series [2] (liver, read-out: Concentration in liver), 140 ng/g and 390 nM; in series [2] (lung, read-out: Concentration in lung), 50 ng/g and 140 nM; in series [2] (plasma, read-out: Concentration in plasma), 120 nM and 40 ng/mL. Further, the concentration at 6 h in series [2] (tumor, read-out: Concentration in tumor) was 290 ng/g and 800 nM.
